In one data set the test system is Meloidogyne incognita. As to the kind of experiment: Test against Meloidogyne spp. (soil pot test). The data set is classed as in vivo. To be noted: soil contaminated with Meloidogyne incognita, final concentration 50 ppm; tomato (Kurihara) in pots, greenhouse 4 weeks; from root knot index. On the procedure:
Test Against Meloidogyne spp. (Soil Pot Test)
Preparation of Test Agent:
1 Part of the active compound is impregnated to 99 parts of pumice to obtain fine granules.
The active compound prepared as mentioned above is added to soil contaminated with Meloidogyne incognita to a final concentration of 50 ppm and then homogeneously mixed by stirring. Then a pot (1/5000 are) was filled with the soil. About 20 seeds of tomato (variety: Kurihara) were sown per pot. After cultivation in a greenhouse for 4 weeks, they were carefully pulled out not to damage the root and the root knot index and the controlling effect of the compound tested were determined as follows:
Degree of damage 0: No knot was formed (Complete control).
1: A few knots were formed.
2: Knots were formed to a medium extent.
3: Knots were formed to an intense extent.
4: Knots were formed to the most intense extent (which corresponds to non-treatment).
Based on the degree of damage acording to the aforementioned standard (0-4), the root knot index can be determined as follows (Equation 1) [formula]
The controlling effect which can be achieved by applying compounds according to the present invention can then be determined as follows (Equation 2): [formula]
The evaluation of the controlling effect towards nematodes is then done by connecting the values of the controlling effect with the following standards (a-d): […]

As a reminder, the melting point is the temperature of the solid-liquid transition. With `CCCCCCc1cc(-c2cccs2)n[nH]1`, the melting point lay in the range of 53 to 55 °C.

On to `ClCCOc1cc(-c2cccs2)n[nH]1`, for which the melting point is 134 to 138 °C.

In turn, `Cc1cc(-c2cccs2)n[nH]1` came in with a melting point of 133 to 135 °C.

Regarding `Oc1cc(-c2cccs2)n[nH]1`, the melting point lay within 144 to 146 °C.

The compound `CCCCc1cc(-c2cccs2)n[nH]1` [Compound 82, 3-(2-thienyl)-5-n-butylpyrazole] gave a melting point of 47 to 48 °C. Moreover, in the data set with Meloidogyne incognita, the “Evaluation of controlling effect” value is reported as “a (Controlling effect 100-71%)”.

`CCCCCc1cc(-c2cccs2)n[nH]1` [Compound 83, 3-(2-thienyl)-5-n-pentylpyrazole] displayed a melting point of 68 to 73 °C. Moreover, in the data set with Meloidogyne incognita, the “Evaluation of controlling effect” value is “a (Controlling effect 100-71%)”.

For the origin of these results see patent publication US6593358B1, “Thienyl-pyrazoles and their use for controlling pests” (Nihon Bayer Agrochem K.K., priority 1999, dated 2003).
